Experimental data: patent US20230203081A1, “LINCOSAMIDE ANTIBIOTICS AND USES THEREOF” (President and Fellows of Harvard College, priority 2020, published 2023)
Converted amounts (≈) assume the structure as drawn. Like-named read-outs stand apart in the source and are kept apart here.

What was measured:
Escherichia coli c-ermB = test: MIC, clinically derived E. coli with acquired resistance; assay type: cell-based
Description: (§1) Minimum inhibitory concentrations (MICs) were determined by broth microdilution method or agar dilution method following the Clinical and Laboratory Standards Institute guidelines. Standard bacterial strains were obtained from American Type Culture Collection (ATCC). Other bacterial strains were obtained from hospitals and commercial sources, so noted in Table 11. Before the start of the MIC experiment, standard and test compound stock solutions were prepared in dimethyl sulfoxide (DMSO, Aldrich D2650) at a stock concentration of 5,120 μg/mL. The compound concentration range typically employed for each experiment was 128-0.06 μg/mL (2.5% final DMSO concentration). Clindamycin was used as a comparator in all experiments and each experiment was performed in triplicate. Specialized procedures were employed for streptococcal and anaerobic strains. All other bacterial strains were sub-cultured on blood agar plates (tryptic soy agar with 5% sheep blood, Hardy Diagnostics) and incubated overnight at 35° C. Organisms were suspended in cation-adjusted Mueller-Hinton broth (CaMHB, BD 212322) and optical density was adjusted to 0.5 McFarland standard. Suspensions were further diluted to obtain a final inoculum of 5×10^5 CFU/mL for broth microdilution experiments.

E. faecium Clinical VRE = test: MIC (broth microdilution or agar dilution, CLSI); assay type: cell-based; conditions: Enterococcus faecium; E. faecium Clinical VRE; read-out: MIC
Outline: (§2)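 Triplicate CLSI determinations by broth or agar dilution, compound at 128-0.06 μg/mL in 2.5% DMSO; special handling for anaerobes. Broth microdilution used 5×10^5 CFU/mL inocula in cation-adjusted Mueller-Hinton broth.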

E. faecium Line R & VRE = test: MIC (broth microdilution or agar dilution, CLSI); assay type: cell-based; conditions: Enterococcus faecium, read-out: MIC
Outline: as §2

S. aureus cErmA = test: MIC (broth microdilution or agar dilution, CLSI); assay type: cell-based; conditions: Staphylococcus aureus; S. aureus cErmA; read-out: MIC
Outline: as §2

P. aeruginosa ATCC 27853 = test: MIC (broth microdilution or agar dilution, CLSI); assay type: cell-based
Outline: as §2

P. aeruginosa ΔAmex OprM = test: MIC (broth microdilution or agar dilution, CLSI); assay type: cell-based
Outline: as §2

B. fragilis ATCC 25285 = test: MIC (broth microdilution or agar dilution, CLSI); assay type: cell-based; conditions: Bacteroides fragilis, read-out: MIC
Outline: as §2

C. difficile ATCC 700057 = test: MIC (broth microdilution or agar dilution, CLSI); assay type: cell-based
Outline: as §2

E. faecium VRE = test: MIC (broth microdilution or agar dilution, CLSI); assay type: cell-based; conditions: Enterococcus faecium; E. faecium VRE; read-out: MIC
Outline: as §2

S. aureus MRSA = test: MIC (broth microdilution or agar dilution, CLSI); assay type: cell-based; conditions: Staphylococcus aureus
Outline: as §2

[1] = test system: E. coli MP-74 LptD mutant; test: MIC (broth microdilution or agar dilution, CLSI); assay type: cell-based; conditions: Escherichia coli
Outline: as §2

C. scindens ATCC 35704 = test: MIC (broth microdilution or agar dilution, CLSI); assay type: cell-based
Outline: as §2

E. coli strain SQ110DTC [2] = test: MIC in LB medium against E. coli SQ110DTC and its FSA-513018b-resistant mutants (Table 14); assay type: cell-based; conditions: Escherichia coli
[3] = mouse, microsomes
A. baumannii ATCC 19606 = test: MIC (broth microdilution or agar dilution, CLSI); assay type: cell-based
Outline: (§3)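 Inoculum for broth microdilution was 5×10^5 CFU/mL final, prepared from overnight 35° C blood-agar subcultures (separate handling for streptococcal and anaerobic strains); MICs read by CLSI broth microdilution or agar dilution.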

H. influenzae ATCC 49247 = test: MIC (broth microdilution or agar dilution, CLSI); assay type: cell-based
Outline: as §3

E. coli strain SQ110DTC [4] = test: Selection of FSA-513018b resistant mutants in SQ110DTC; assay type: cell-based; conditions: SQ110DTC plated on agar containing FSA-513018b
Description: […]. […] Approximately 20 colonies appeared on both plates after incubation at 37° C. for 24 h. The segment of the 23S rRNA gene corresponding to domains V and VI of the 23S rRNA was PCR-amplified from 14 randomly selected colonies using the primers 2020R (CCCGAGACTCAGTGAAATTGAACTC) and L2904 (AAG GTT AAG CCT CAC GG). PCR products were sequenced using the primer L2667 (GGTCCTCTCGTACTAGGAGCAG).

S. aureus BAA 977 iErmA = test: microbe, parasite or virus in culture; assay type: cell-based; conditions: Staphylococcus aureus
Outline: as §3

S. aureus MP-549 msrA = test: microbe, parasite or virus in culture; assay type: cell-based; conditions: Staphylococcus aureus, MP549MSRA
Outline: as §3

E. faecalis VRE [5] = test: MIC (CLSI), third E. faecalis VRE line of Table 4; assay type: cell-based; conditions: Enterococcus faecalis; E. faecalis VRE (Table 4, third VRE line); read-out: MIC
Description: as §1

E. faecalis VRE [6] = test: MIC (CLSI), second E. faecalis VRE line of Table 4; assay type: cell-based; conditions: Enterococcus faecalis; E. faecalis VRE (Table 4, second VRE line); read-out: MIC
Description: as §1

human erythrocytes = test: Hemolysis of human erythrocytes relative to Triton X-100; assay type: cell-based; conditions: result in words
E. coli HAV504 = test: Murine neutropenic thigh infection model; assay type: in vivo, mice; conditions: neutropenic mouse thigh, E. coli HAV504 (FIG. 4C)
[7] = Plasma protein binding, species h; assay type: in vitro ADME; conditions: human

**Q.** For `CSC1O[C@H]([C@H](NC(=O)[C@H]2NC[C@@H]3C[C@H](CC(C)C)CCO[C@H]32)[C@H](C)Cl)C(O)[C@@H](O)[C@H]1O` (some centres unmarked) [FSA-513018b], which MIC (Escherichia coli c-ermB; E. coli HAV#504, Clinical, cErmB) is on record?
**A.** The MIC was 8 µg/mL (≈ 16.2 µM).

**Q.** And the MIC (Escherichia coli c-ermB; Escherichia coli)?
**A.** Its MIC is 8 µg/mL (≈ 16.2 µM).

**Q.** What about the MIC (E. faecium Clinical VRE) of the same compound?
**A.** The MIC was 1 µg/mL (≈ 2.02 µM).

**Q.** And the MIC (E. faecium Line R & VRE; E. faecium HAV#319, Line R & Vanco R)?
**A.** The MIC was no more than 0.06 µg/mL.

**Q.** What about the MIC (E. faecium Line R & VRE; E. faecium Line R & VRE) of the same compound?
**A.** The MIC was 0.06 µg/mL (≈ 0.121 µM).

**Q.** And the MIC (S. aureus cErmA)?
**A.** Its MIC is 4 µg/mL (≈ 8.08 µM).

**Q.** And the MIC (P. aeruginosa ATCC 27853; P. aeruginosa HAV#009, ATCC 27853)?
**A.** The MIC was 128 µg/mL (≈ 259 µM).

**Q.** What about the MIC (P. aeruginosa ATCC 27853; Pseudomonas aeruginosa, ATCC27853, P. aeruginosa ATCC 27853, read-out: MIC) of the same compound?
**A.** The MIC was 128 µg/mL (≈ 259 µM).

**Q.** What about the MIC (P. aeruginosa ΔAmex OprM; P. aeruginosa HAV#039, ΔAmex OprM) of the same compound?
**A.** Its MIC is 4 µg/mL (≈ 8.08 µM).

**Q.** And the MIC (P. aeruginosa ΔAmex OprM; Pseudomonas aeruginosa)?
**A.** Its MIC is 4 µg/mL (≈ 8.08 µM).

**Q.** And the MIC (B. fragilis ATCC 25285; ATCC25285, B. fragilis ATCC 25285)?
**A.** Its MIC is 0.5 µg/mL (≈ 1.01 µM).

**Q.** And the MIC (B. fragilis ATCC 25285; ATCC25285, B. fragilis HAV#013, ATCC 25285)?
**A.** The MIC was 0.5 µg/mL (≈ 1.01 µM).

**Q.** What about the MIC (C. difficile ATCC 700057; C. difficile HAV#011, ATCC 700057) of the same compound?
**A.** Its MIC is 0.25 µg/mL (≈ 0.505 µM).

**Q.** What about the MIC (C. difficile ATCC 700057; Clostridioides difficile, ATCC700057, C. difficile ATCC 700057, read-out: MIC) of the same compound?
**A.** Its MIC is 0.25 µg/mL (≈ 0.505 µM).

**Q.** And the MIC (E. faecium VRE)?
**A.** The MIC was 1 µg/mL (≈ 2.02 µM).

**Q.** And the MIC (S. aureus MRSA)?
**A.** Its MIC is 0.06 µg/mL (≈ 0.121 µM).

**Q.** And the MIC [1]?
**A.** The MIC was 1 µg/mL (≈ 2.02 µM).

**Q.** And the MIC (C. scindens ATCC 35704; C. scindens HAV#012, ATCC 35704)?
**A.** Its MIC is 0.125 µg/mL (≈ 0.252 µM).

**Q.** What about the MIC (C. scindens ATCC 35704; [Clostridium] scindens, ATCC35704, C. scindens ATCC 35704, read-out: MIC) of the same compound?
**A.** Its MIC is 0.125 µg/mL (≈ 0.252 µM).

**Q.** And the MIC (E. coli strain SQ110DTC [2]; E. coli SQ110DTC, WT)?
**A.** The MIC was 0.03 µg/mL (≈ 0.0606 µM).

**Q.** And the MIC (E. coli strain SQ110DTC [2]; clone SA-3R1, mutation 2058G, selection plate 1 μg/mL FSA-513018b)?
**A.** The MIC was 4 µg/mL (≈ 8.08 µM).

**Q.** What about the MIC (E. coli strain SQ110DTC [2]; clone SA-3R2, mutation 2059G, selection plate […] FSA-513018b) of the same compound?
**A.** Its MIC is 2 µg/mL (≈ 4.04 µM).

**Q.** And the MIC (E. coli strain SQ110DTC [2]; clone SA-3R9, mutation 2058G, selection plate […] FSA-513018b)?
**A.** Its MIC is 4 µg/mL (≈ 8.08 µM).

**Q.** What about the MIC (E. coli strain SQ110DTC [2]; clone SA-3R13, mutation 2059G, selection plate 1 μg/mL FSA-513018b) of the same compound?
**A.** The MIC was 2 µg/mL (≈ 4.04 µM).

**Q.** What about the MIC (E. coli strain SQ110DTC [2]; read-out: MICs of resistant clones, SQ110DTC clones selected on agar containing FSA-513018b (A2058G or A2059G in 23S rRNA)) of the same compound?
**A.** The MIC was 2 to 4 µg/mL (≈ 4.04 to 8.08 µM).

**Q.** And the “Clint,mic” value [3]?
**A.** Its value is 21.

**Q.** What about the MIC (A. baumannii ATCC 19606; A. baumanii HAV#010, ATCC 19606) of the same compound?
**A.** Its MIC is 4 µg/mL (≈ 8.08 µM).

**Q.** What about the MIC (A. baumannii ATCC 19606; Acinetobacter baumannii, ATCC19606, A. baumannii ATCC 19606, read-out: MIC) of the same compound?
**A.** Its MIC is 4 µg/mL (≈ 8.08 µM).

**Q.** And the MIC (H. influenzae ATCC 49247; H. influenzae HAV#007, ATCC 49247)?
**A.** The MIC was 1 µg/mL (≈ 2.02 µM).

**Q.** And the MIC (H. influenzae ATCC 49247; Haemophilus influenzae, ATCC49247, H. influenzae ATCC 49247, read-out: MIC)?
**A.** Its MIC is 1 µg/mL (≈ 2.02 µM).

**Q.** What about the “frequency of resistant clones” value (E. coli strain SQ110DTC [4]) of the same compound?
**A.** Its value is ~10^−8.

**Q.** And the MIC (S. aureus BAA 977 iErmA; BAA977)?
**A.** Its MIC is no more than 0.06 µg/mL.

**Q.** What about the MIC (S. aureus BAA 977 iErmA; BAA-977 / MRSA) of the same compound?
**A.** The MIC was 0.06 µg/mL (≈ 0.121 µM).

**Q.** What about the MIC (S. aureus BAA 977 iErmA; BAA-977 / MRSA, 24 h) of the same compound?
**A.** Its MIC is 2 µg/mL (≈ 4.04 µM).

**Q.** And the MIC (S. aureus MP-549 msrA; S. aureus MP-549 msrA)?
**A.** The MIC was no more than 0.06 µg/mL.

**Q.** And the MIC (S. aureus MP-549 msrA; S. aureus HAV#032, MP-549, MSR(A))?
**A.** The MIC was 0.06 µg/mL (≈ 0.121 µM).

**Q.** What about the MIC (E. faecalis VRE [5]) of the same compound?
**A.** The MIC was 1 µg/mL (≈ 2.02 µM).

**Q.** And the MIC (E. faecalis VRE [6])?
**A.** Its MIC is 1 µg/mL (≈ 2.02 µM).

**Q.** And the hemolysis (human erythrocytes)?
**A.** Its hemolysis is “non-hemolytic”.

**Q.** What about the “efficacy in thigh infection model” value (E. coli HAV504) of the same compound?
**A.** The value was “effective”.

**Q.** What about the fraction unbound [7] of the same compound?
**A.** The fraction unbound was 0.08.
